“And” between values parts separate entries of the source, which are not always exact repeats. Identical values can stand only once. The source made the active and inactive calls. No cut-off for these calls is given here.

The target of assay [1] is Cannabinoid receptor 1 (Mus musculus) (UniProt P47746). Kind of assay: Antagonist activity at CB1 receptor in mouse N1E-115 cells assessed as inhibition of WIN55,212-2-induced phosphorylation of ERK1/2 by measuring phosphorylated ERK1/2 level at 1 uM preincubated for 5 mins followed by WIN55,212-2 addition measured after 10 mins by Western blot method. It counts as cell-based. Also noted: scale not given: the % may be the effect or the level left. (In general: In western blotting, separated proteins are transferred to a membrane and probed.)

Assay [2] has as its target Cannabinoid receptor 1 (Mus musculus, UniProt P47746). Kind of assay: Displacement of [3H]-CP55,940 from CB1 receptor in mouse whole brain membranes after 60 mins by liquid scintillation spectrometry. It counts as cell membranes, Membrane. On the technique in general: Loss of bound radioactivity is the signal in a displacement assay; it reports binding, not function.
Another assay addresses Cannabinoid receptor 2 (Homo sapiens, UniProt P34972). Description: Displacement of [3H]-CP55,940 from human CB2 receptor transfected in CHO cell membranes after 60 mins by liquid scintillation spectrometry.
Assay [3] is described as follows: Selectivity ratio of Ki for human CB2 receptor to Ki for CB1 receptor in mouse whole brain membranes. It counts as cell membranes.
Assay [4] deals with Cannabinoid receptor 1 (Mus musculus) (UniProt P47746). Description: Intrinsic activity at CB1 receptor in mouse N1E-115 cells assessed as phosphorylation of ERK1/2 at 1 uM after 10 mins by Western blot method relative to control. It counts as cell-based.
Assay [5] concerns the target Cannabinoid receptor 1 (Homo sapiens, UniProt P21554). Kind of assay: Displacement of [3H]-CP55,940 from human CB1 receptor transfected in CHO cell membranes.
Assay [6] has as its target Cannabinoid receptor 1 (Mus musculus) (UniProt P47746). Kind of assay: Intrinsic activity at CB1 receptor in mouse N1E-115 cells assessed as phosphorylation of ERK1/2 at 1 nM to 10 uM after 10 mins by Western blot method. It counts as cell-based.

Cannabinoid receptor 2, sequence (P34972 whole entry): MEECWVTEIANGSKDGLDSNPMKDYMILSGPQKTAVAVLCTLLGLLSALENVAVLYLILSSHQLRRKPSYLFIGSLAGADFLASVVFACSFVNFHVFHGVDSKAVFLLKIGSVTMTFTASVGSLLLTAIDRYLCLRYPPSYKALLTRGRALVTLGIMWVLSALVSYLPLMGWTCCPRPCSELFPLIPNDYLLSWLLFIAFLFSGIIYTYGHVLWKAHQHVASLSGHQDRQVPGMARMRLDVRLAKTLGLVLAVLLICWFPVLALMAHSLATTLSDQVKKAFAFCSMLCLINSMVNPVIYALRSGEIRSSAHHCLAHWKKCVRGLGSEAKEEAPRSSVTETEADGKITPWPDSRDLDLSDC
Cannabinoid receptor 1 (Mus musculus), sequence (P47746 whole entry): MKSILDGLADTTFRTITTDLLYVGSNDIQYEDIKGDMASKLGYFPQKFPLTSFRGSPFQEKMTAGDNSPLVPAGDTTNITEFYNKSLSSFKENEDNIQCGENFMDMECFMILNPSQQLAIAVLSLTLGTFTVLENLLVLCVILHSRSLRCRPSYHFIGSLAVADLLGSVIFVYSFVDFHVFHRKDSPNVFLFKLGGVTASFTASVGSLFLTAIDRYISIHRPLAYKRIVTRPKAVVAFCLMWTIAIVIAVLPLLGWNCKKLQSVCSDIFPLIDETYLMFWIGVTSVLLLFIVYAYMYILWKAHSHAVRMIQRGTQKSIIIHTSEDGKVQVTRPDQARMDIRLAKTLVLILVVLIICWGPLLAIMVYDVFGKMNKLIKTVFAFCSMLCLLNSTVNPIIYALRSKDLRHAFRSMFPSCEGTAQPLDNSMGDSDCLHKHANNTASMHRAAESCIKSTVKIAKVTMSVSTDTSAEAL
Cannabinoid receptor 1 (Mus musculus, UniProt P47746), sequence (P47746 whole entry): as above
Cannabinoid receptor 1 (Homo sapiens, UniProt P21554), sequence (P21554 whole entry): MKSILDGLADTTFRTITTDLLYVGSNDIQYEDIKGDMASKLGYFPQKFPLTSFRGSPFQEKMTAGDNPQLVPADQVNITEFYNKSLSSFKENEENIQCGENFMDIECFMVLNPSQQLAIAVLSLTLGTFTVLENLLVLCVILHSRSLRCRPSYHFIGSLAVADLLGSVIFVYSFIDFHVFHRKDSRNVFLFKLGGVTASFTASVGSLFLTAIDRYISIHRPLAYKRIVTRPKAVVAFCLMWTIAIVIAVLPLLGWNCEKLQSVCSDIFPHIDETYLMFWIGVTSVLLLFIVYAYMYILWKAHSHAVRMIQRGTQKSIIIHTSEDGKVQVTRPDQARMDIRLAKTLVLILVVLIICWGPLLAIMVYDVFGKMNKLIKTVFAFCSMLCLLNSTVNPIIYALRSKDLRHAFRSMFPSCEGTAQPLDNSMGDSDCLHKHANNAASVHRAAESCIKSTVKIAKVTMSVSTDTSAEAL

On to `O=C(NN1CCCCCC1)c1nn(-c2ccc(Cl)cc2Cl)c2c1CCCc1cc(Cl)ccc1-2`, for which the Activity in assay [1] turned out to be 102%. In addition, the Ki at Cannabinoid receptor 1 [2] amounted to 4.5 nM; at Cannabinoid receptor 2, 28.1 nM. Further, the Ratio Ki in assay [3] turned out to be 6.24. The Intrinsic activity in assay [4] stood at 107%.
As to `O=C(NN1CCCCC1)c1nn(-c2ccc(Cl)cc2Cl)c2c1CCCc1cc(Cl)ccc1-2`, the Activity in assay [1] is 115%. Also, the Ki at Cannabinoid receptor 1 [2] is 8.18 nM and 4.2 nM; on Cannabinoid receptor 2, 55.7 nM and 85.2 nM; at Cannabinoid receptor 1 [5] it was 126 nM. In assay [3], the Ratio Ki stood at 13.3. Besides, the Intrinsic activity in assay [4] was determined as 111%.
As for `OC(CC1CCCCC1)c1nn(-c2ccc(Cl)cc2Cl)c2c1CCCc1cc(Cl)ccc1-2` (stereo unspecified), the Ki at Cannabinoid receptor 1 [2] came out at 154 nM; at Cannabinoid receptor 2, 24 nM. The Ratio Ki in assay [3] is 0.16.
For `O=C(CC1CCCCC1)c1nn(-c2ccc(Cl)cc2Cl)c2c1CCCc1cc(Cl)ccc1-2`, the Activity in assay [1] came to 105%. For the same compound, the Ki was 8.5 nM at Cannabinoid receptor 1 [2] and 325 nM at Cannabinoid receptor 2. In assay [3], the Ratio Ki was 38.2. Further, the Intrinsic activity in assay [4] was found to be 115%.
Take `O=C(NCC12CC3CC(CC(C3)C1)C2)c1nn(-c2ccc(Cl)cc2Cl)c2c1CCCc1cc(Cl)ccc1-2`: the Activity in assay [1] was determined as 108%. Also, the Ki was 19.1 nM at Cannabinoid receptor 1 [2] and 13.3 nM on Cannabinoid receptor 2. The Ratio Ki in assay [3] stood at 0.69. In addition, in assay [4], the Intrinsic activity was found to be 98%.
As for `O=C(NC[C@H]1CCCO1)c1nn(-c2ccc(Cl)cc2Cl)c2c1CCCc1cc(Cl)ccc1-2`, the Activity in assay [1] is 118%. For the same compound, the Ki on Cannabinoid receptor 1 [2] turned out to be 24.8 nM; at Cannabinoid receptor 2 it was 52.1 nM. In addition, the Ratio Ki in assay [3] was 2.1. In assay [4], the Intrinsic activity came out at 113%.
The matching figures for `O=C(NC1CCCCC1)c1nn(-c2ccc(Cl)cc2Cl)c2c1CCCc1cc(Cl)ccc1-2`: 117%, 10.2 nM, 17.9 nM, 1.75 and 113%.
Take `O=C(NCC1CCCCC1)c1nn(-c2ccc(Cl)cc2Cl)c2c1CCCc1cc(Cl)ccc1-2`: the Activity in assay [1] was 109%. The figures for the Ki at Cannabinoid receptor 1 [2] and at Cannabinoid receptor 2 were 19.4 nM and 31.8 nM, respectively. The Ratio Ki in assay [3] turned out to be 1.64. Also, the Intrinsic activity in assay [4] came to 100%.
With `Cc1c(C(=O)NN2CCCCC2)nn(-c2ccc(Cl)cc2Cl)c1-c1ccc(Cl)cc1`, the Activity in assay [1] turned out to be 108%. Moreover, the Intrinsic activity in assay [4] was 110%.
For the compound `CC1(C)C2CCC(CNC(=O)c3nn(-c4ccc(Cl)cc4Cl)c4c3CCCc3cc(Cl)ccc3-4)C1C2` (stereo unspecified), the result in assay [6] was Active. The Ki on Cannabinoid receptor 1 [2] came out at 3.6 nM; on Cannabinoid receptor 2 it was 19.5 nM. Further, in assay [3], the Ratio Ki turned out to be 5.42.
Take `CC1(C)C2CCC(CNC(=O)c3nn(-c4ccc(Cl)cc4Cl)c4c3CCCc3ccc(Cl)cc3-4)C1C2` (stereo unspecified): in assay [6], the outcome was Active. The results for the Ki at Cannabinoid receptor 1 [2] and on Cannabinoid receptor 2 were 17.3 nM and 13.6 nM, respectively. For the same compound, in assay [3], the Ratio Ki amounted to 0.79.
In the case of `Cc1ccc(Cn2nc(C(=O)NCC3CCC4CC3C4(C)C)c3c2-c2ccc(Cl)cc2CCC3)cc1` (stereo unspecified), the Ki came to 313 nM at Cannabinoid receptor 1 [2] and 9.5 nM on Cannabinoid receptor 2. Moreover, the Ratio Ki in assay [3] amounted to 0.03.
In the case of `O=C(NN1CCCC1)c1nn(-c2ccc(Cl)cc2Cl)c2c1CCCc1cc(Cl)ccc1-2`, the Activity in assay [1] was determined as 103%. The Ki at Cannabinoid receptor 1 [2] stood at 17.2 nM; at Cannabinoid receptor 2, 182 nM. In assay [3], the Ratio Ki was found to be 10.6. Moreover, in assay [4], the Intrinsic activity came out at 95%.
Consider `Cc1ccc(Cn2nc(C(=O)NCC3CCC4CC3C4(C)C)c3c2-c2cc(Cl)ccc2CCC3)cc1` (stereo unspecified), for which the Ki amounted to 169 nM on Cannabinoid receptor 1 [2] and 51.1 nM at Cannabinoid receptor 2. The Ratio Ki in assay [3] turned out to be 0.3.
At Cannabinoid receptor 1 [2], `CCCCCCC(C)(C)c1ccc([C@@H]2C[C@H](O)CC[C@H]2CCCO)c(O)c1` [CP-55940] returned a Ki of 0.62 nM.

What is called Ki is the equilibrium dissociation constant of an inhibitor or competing ligand from its target.

(Values after ChEMBL document CHEMBL3856211, “A critical review of both the synthesis approach and the receptor profile of the 8-chloro-1-(2',4'-dichlorophenyl)-N-piperidin-1-yl-1,4,5,6-tetrahydrobenzo[6,7]cyclohepta[1,2-c]pyrazole-3-carboxamide and analogue derivatives” (Eur J Med Chem, 2016).)
